{"source": "patent EP0125615B1", "about": "“Schwanniomyces castellii strains and brewing process” (LABATT BREWING COMPANY LIMITED, priority 1983, dated 1984)", "system": "Schwanniomyces castellii strain ATCC 26077", "experiment": "Mutagenic treatment, mutants resistant to 2-deoxy-glucose on potato starch agar", "assay_type": "cell-based, Schwanniomyces castelli", "details": "EMS treatment", "procedure": "The present invention also relates to the production of a novel strain of Schwanniomyces castellii. The mutant strain Schwanniomyces castellii NCYC 1461 was produced by treating a known strain, Schwanniomyces castellii ATCC 26077 with known mutagenic agents. The survivors were cultured on potato starch agar in the presence of concentrations of deoxyglucose at least as high as 10-^3 molar. […] Accordingly, the selection of the mutant strain is particularly desirable in the production of the above-mentioned culture filtrate having amylolytic enzyme activity. By means of such a selection there is a large proportionate increase in the relative amount of alpha-amylase present in the clarified culture filtrate. This novel strain of Schwanniomyces castellii is available upon request from the Yeast Collection of the National Collection of Yeast Cultures Depository (\"NCYC\"), Food Research Institute, Norwich, Norfolk, England. The ascession number of that organism in the above-mentioned repository is NCYC 1461. Schwanniomyces castellii strain NCYC 1461 is one of a number of mutant strains of Schwanniomyces castellii that .were produced by way of the above-outlined mutagenic treatment of Schwanniomyces castellii strain ATCC 26077. The particulars of the mutagenic treatments are detailed below in Table III which indicates the time of exposure, the percent survival rate, and the frequency of mutation for both of the treatments employed."}
{"smiles": "CCOS(C)(=O)=O", "note": "[EMS]", "values": [{"measurement": "% Survival", "setting": "time of exposure 30 min", "value": 66, "unit": "%"}, {"measurement": "Frequency of mutation", "setting": "time of exposure 30 min", "value": "10^-3"}, {"measurement": "% Survival", "setting": "time of exposure 60 min", "value": 14, "unit": "%"}, {"measurement": "Frequency of mutation", "setting": "time of exposure 60 min", "value": "2×10^-4"}]}
